Data as given in PMC11466185, “Mechanisms and efficacy of small molecule latency-promoting agents to inhibit HIV reactivation ex vivo” (JCI Insight, 2024).
Several values for one entry are separate records, joined by “and”; a condition that tells them apart may be missing. Identical values can stand only once. Entries after “also recorded” stand apart in the source; their conditions may differ. Like-named read-outs stand apart in the source and are kept apart here.

Tests used:
[1] = test system: PolyA HIV RNA in the supernatant; test: Supernatant viral RNA (polyadenylated HIV RNA, RT-ddPCR) at day 6 after T cell activation; assay type: cell-based; conditions: for Viral RNA in supernatant (PolyA HIV RNA), median relative to activated DMSO: day 6 after anti-CD3/CD28 activation, Figure 5; for Polyadenylated HIV RNA in supernatant (Fig 5) / Polyadenylated HIV RNA in supernatant (Fig 5, Fig S6B): day 6
Method: PBMCs were cultured in the presence of individual drugs in DMSO or DMSO alone as control, activated (anti-CD3/CD28), and assessed for levels of PolyA HIV RNA in the supernatant at day 6.
Each drug was tested in PBMCs from 6 ART-suppressed study participants (except for triptolide, n = 5). PBMCs were aliquoted into wells at 6 × 10^6 cells/well. After activation, the cells were cultured with antiretrovirals in the presence of individual drugs in DMSO or DMSO alone as control. All conditions were tested in the presence of CD3/28 T cell–activating beads, except for the unactivated DMSO condition. After 6 days, RNA was extracted from the culture supernatant. Polyadenylated HIV RNA in the supernatant was quantified by RT-ddPCR, expressed as copies/mL, and then normalized to the levels of the activated DMSO (% of activated DMSO). Medians and IQR are presented, as well as the individual values per study participant in different colors. Comparisons were performed using Wilcoxon’s signed-rank test.
(§1) For quantification of cell-associated HIV transcripts, PBMCs were harvested either after 24 hours or after 6 days. The cell viabilities were measured by trypan blue staining; then the cells were pelleted by centrifuging at 300g for 6 minutes and stored at –80°C. For quantification of virion-associated HIV RNA, cell culture supernatant was collected from 6 × 10^6 PBMCs that were treated and activated for 6 days as described above. Residual cells and cellular debris were subsequently removed from the supernatant by differential centrifugation (300g for 6 minutes, then 20,000g for 10 minutes), and the supernatant was stored at –80°C.
Total cellular DNA and RNA were extracted in parallel using Trireagent (Molecular Research Center) according to the manufacturer’s instructions, except for study participants 2147 and 2461 (Figure 4), for whom DNA and RNA were extracted using the QIAGEN AllPrep DNA/RNA/miRNA Universal Kit with on-column DNase I treatment of the RNA and the manufacturer’s modification to enhance recovery of short transcripts. RNA and DNA concentrations were measured using UV spectrophotometry (NanoDrop One, Thermo Fisher Scientific). Total initiated HIV (TAR) transcripts were quantified by a 3-step polyadenylation RT-ddPCR as described previously ([8], [84]). HIV 5′ elongated (LLTR), midtranscribed (Pol), completed (PolyA), and multiply spliced (TatRev) transcripts were quantified by a 2-step RT-ddPCR as previously described ([8]). The levels of each HIV transcript were normalized to 1 μg of total cellular RNA and expressed as a percentage of the (activated) DMSO control. To quantify virion-associated RNA in supernatant, RNA was extracted from 400 μL supernatant using Trireagent-LS (Molecular Research Center) according to the manufacturer’s instructions. Levels of U3-polyadenylated HIV RNA were measured in the supernatant by RT-ddPCR, normalized to copies/mL, and expressed as a percentage of the activated DMSO. For measuring the HIV infection frequency at day 6, the HIV DNA U3-U5 LTR region was quantified by using ddPCR as described previously ([8]). HIV DNA copies were normalized to cell numbers according to the mass of DNA input per well (calculated from the DNA concentration and input volume) ([85]).

[2] = test system: HIV transcripts (PolyA, TatRev); test: Dose-response curves of LPAs: polyadenylated and multiply spliced HIV transcripts 24 hours after activation; assay type: cell-based; conditions: for IC50: Human immunodeficiency virus 1, PBMC, 24 h, PBMCs from 1 participant per drug; for MS Tat-Rev (dose-response) / PolyA (dose-response): 24 hours, 1 participant per drug
Method: The IC50 was determined based on the reduction in completed (PolyA) as well as multiply spliced (TatRev) HIV transcripts relative to activated DMSO (Table 1).
Figure 2 Dose-response curves of LPAs. Dose-response curves for each drug were generated in PBMCs from 1 ART-suppressed study participant per drug. PBMCs were aliquoted into wells at 6 × 10^6 cells/well, activated, and cultured with antiretrovirals in the presence of DMSO alone (no drug) or varying concentrations of individual drugs in DMSO. After 24 hours, the levels of polyadenylated and multiply spliced HIV transcripts were quantified by RT-ddPCR, normalized to 1 μg of total cellular RNA, and expressed as a percentage of the activated DMSO control (% of activated DMSO).

PBMCs = assay type: cell-based, human; conditions: 6 days after αCD3/28 activation, each row one participant
Method: Next, we evaluated the ability of the candidate LPAs to sustain the inhibitory effects during a prolonged ex vivo culture. To this end, PBMCs were cultured in the presence of individual drugs in DMSO or in DMSO alone as control, activated (anti-CD3/CD28), and harvested after 6 days. […] However, we decided to test the drug on day 6 because extra cells were available from some study participants.
as §1
A) After six days, the viability was measured by trypan blue staining and then normalized to the levels of the activated DMSO (% of activated DMSO). Bars indicate medians and different colors indicate individual study participants. B-F) Each drug was tested in PBMCs from at least six ART-suppressed study participants (except for KRIBB11, n=5) and the PBMCs were aliquoted into wells at 6x10^6 cells/well. After activation, the cells were cultured with antiretrovirals in the presence of individual drugs in DMSO or DMSO alone as control. After six days, total RNA was extracted and the progression through different stages of HIV transcription was (1 picture or pasted object on this page, not shown here)

[3] = reduction in PolyA HIV transcripts relative to activated DMSO, read-out: Completed (PolyA) IC50
[4] = reduction in TatRev HIV transcripts relative to activated DMSO, read-out: Multiply spliced (TatRev) IC50

Compound | Viral RNA in supernatant (PolyA HIV RNA), median relative to activated DMSO [1] | Polyadenylated HIV RNA in supernatant (Fig 5) ([1]; study participant 156) | Polyadenylated HIV RNA in supernatant (Fig 5) ([1]; study participant 163) | Polyadenylated HIV RNA in supernatant (Fig 5) ([1]; study participant 2027) | Polyadenylated HIV RNA in supernatant (Fig 5) ([1]; study participant 2147b) | Polyadenylated HIV RNA in supernatant (Fig 5) ([1]; study participant 2256) | Polyadenylated HIV RNA in supernatant (Fig 5) ([1]; study participant 2747) | Polyadenylated HIV RNA in supernatant (Fig 5, Fig S6B) ([1]; study participant 150b) | Polyadenylated HIV RNA in supernatant (Fig 5) ([1]; study participant 2161) | Polyadenylated HIV RNA in supernatant (Fig 5) ([1]; study participant 5557) | further results
CNc1ccc([N+](=O)[O-])c(Nc2ccc3[nH]ncc3c2)n1 [KRIBB11] | did not inhibit | 18.79 % of activated DMSO | 90.15 % of activated DMSO | 444.44 % of activated DMSO | 47.37 % of activated DMSO | 93.55 % of activated DMSO | 72.27 % of activated DMSO | – | – | – | Polyadenylated HIV RNA in supernatant (Fig 5) ([1]; study participant 150a): 72.41 % of activated DMSO
CN1CC[C@H](c2c(O)cc(O)c3c(=O)cc(-c4ccccc4Cl)oc23)[C@H](O)C1 [alvocidib] | – | – | – | 504.5 % of activated DMSO | 0 % of activated DMSO | 81.72 % of activated DMSO | – | 81.21 % of activated DMSO | 41.86 % of activated DMSO | 155.63 % of activated DMSO | IC50 [2, 3]: 0.00341 µM; IC50 [2, 4]: 0.00423 µM; MS Tat-Rev (dose-response) ([2]; dose 4 nM): 60.15 % of activated DMSO; PolyA (dose-response) ([2]; dose 4 nM): 52.96 % of activated DMSO; MS Tat-Rev (dose-response) ([2]; dose 10 nM): 21.37 % of activated DMSO; PolyA (dose-response) ([2]; dose 10 nM): 17.13 % of activated DMSO; MS Tat-Rev (dose-response) ([2]; dose 40 nM): 5.52 % of activated DMSO; PolyA (dose-response) ([2]; dose 40 nM): 5.99 % of activated DMSO; MS Tat-Rev (dose-response) ([2]; dose 100 nM): 1.88 % of activated DMSO; PolyA (dose-response) ([2]; dose 100 nM): 3.2 % of activated DMSO
CCc1cnn2c(NCc3ccc[n+]([O-])c3)cc(N3CCCC[C@H]3CCO)nc12 [dinaciclib] | – | 0 % of activated DMSO | 133.94 % of activated DMSO | 0 % of activated DMSO | 0 % of activated DMSO | – | 23.64 % of activated DMSO | 11.52 % of activated DMSO | 4.65 % of activated DMSO | – | PolyA (dose-response) ([2]; dose 1 nM): 39.51 % of activated DMSO; PolyA (dose-response) ([2]; dose 4 nM): 6.37 % of activated DMSO; PolyA (dose-response) ([2]; dose 8 nM): 1.62 % of activated DMSO
CO[C@H]([C@@H](C)[C@H]1O[C@]1(C)C[C@H](C)/C=C/C=C(\C)[C@H]1O[C@@H](CC(=O)O)CC[C@@H]1C)[C@@H](C)O [herboxidiene] | tended to reduce | – | – | 240.24 % of activated DMSO | 0 % of activated DMSO | 1.61 % of activated DMSO | – | 67.27 % of activated DMSO | 4.65 % of activated DMSO | 42.05 % of activated DMSO | Cell viability (DMSO αCD3/28 = 100) (PBMCs; 5nM): 119.6 and 123.7 and 95.53 and 100.64 and 118.06 and 114.9 and 85 and 106.6 and 119.5
COc1ccc(-c2cc(=O)c3c(O)cc(O)c(-c4cc(-c5cc(=O)c6c(O)cc(O)cc6o5)ccc4OC)c3o2)cc1 [isoginkgetin] | – | – | – | 8.41 % of activated DMSO | 63.16 % of activated DMSO | 4.84 % of activated DMSO | – | 303.03 % of activated DMSO | 0 % of activated DMSO | 39.4 % of activated DMSO | Cell viability (DMSO αCD3/28 = 100) (PBMCs; 25μM): 120.3 and 106.36 and 93.99 and 112.22 and 91.65 and 74.9 and 87.5 and 124.6
N#CC[C@H](C1CCCC1)n1cc(-c2ncnc3[nH]ccc23)cn1 [ruxolitinib] | – | 0 % of activated DMSO | 0.53 % of activated DMSO | 0 % of activated DMSO | 0 % of activated DMSO | – | 0 % of activated DMSO | – | 5.81 % of activated DMSO | – | IC50 [2, 3]: 0.27 µM; IC50 [2, 4]: 0.26 µM; MS Tat-Rev (dose-response) ([2]; dose 0.4 µM): 41.24 % of activated DMSO; PolyA (dose-response) ([2]; dose 0.4 µM): 33.83 % of activated DMSO; MS Tat-Rev (dose-response) ([2]; dose 1 µM): 15.99 % of activated DMSO; PolyA (dose-response) ([2]; dose 1 µM): 29.83 % of activated DMSO; MS Tat-Rev (dose-response) ([2]; dose 4 µM): 8.19 % of activated DMSO; PolyA (dose-response) ([2]; dose 4 µM): 7.04 % of activated DMSO; MS Tat-Rev (dose-response) ([2]; dose 10 µM): 4.34 % of activated DMSO; PolyA (dose-response) ([2]; dose 10 µM): 4.66 % of activated DMSO; Polyadenylated HIV RNA in supernatant (Fig 5) ([1]; study participant 150a): 6.55 % of activated DMSO; Polyadenylated HIV RNA in supernatant (Fig 5) ([1]; study participant 2750): 0 % of activated DMSO
C=CCNC1=C2C[C@@H](C)C[C@H](OC)[C@H](O)[C@@H](C)/C=C(\C)[C@H](OC(N)=O)[C@@H](OC)/C=C\C=C(/C)C(=O)NC(=CC1=O)C2=O [tanespimycin] | – | – | – | – | 0 % of activated DMSO | 2.15 % of activated DMSO | – | 0 % of activated DMSO | – | 0 % of activated DMSO | Cell viability (DMSO αCD3/28 = 100) (PBMCs; 5μM): 119.92 and 93.07 and 93.65 and 100.43 and 91.95 and 100.9 and 116.6; Polyadenylated HIV RNA in supernatant (Fig 5, Fig S6B) ([1]; study participant 1713): 0 % of activated DMSO; Polyadenylated HIV RNA in supernatant (Fig 5) ([1]; study participant 2750): 0 % of activated DMSO
mithramycin A | tended to reduce; also recorded: inhibited the production of viral RNA in supernatant in 5 out of 6 study participants | – | – | – | 0 % of activated DMSO | 2.15 % of activated DMSO | – | 2.42 % of activated DMSO | – | 0 % of activated DMSO | Polyadenylated HIV RNA in supernatant (Fig 5, Fig S6B) ([1]; study participant 1713): 2.06 % of activated DMSO
